Test results taken from patent US10106504B2, “Pyridin-3-yl acetic acid derivatives as inhibitors of human immunodeficiency virus replication” (priority 2015, dated 2018).

What follows are molecules tested on NL-RLuc virus (assay: Inhibition of HIV replication (NL-RLuc virus, luciferase readout in MT-2 cells)). Conditions: Human immunodeficiency virus 1, MT2, 120 h, read-out: Activity.
Type: cell-based
In short: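 MT-2 cells were infected with NL-RLuc (Renilla luciferase in place of nef) in the presence of serial compound dilutions, in RPMI 1640 with 10% heat-inactivated FBS. After 5 days, luciferase was measured. EC50 came from the median effect equation using at least 2 experiments.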

| Structure (SMILES) | EC50 [µM] |
| --- | --- |
| Cc1cc(N2CCc3cc(-c4c(C)nc(C)c([C@H](OC(C)(C)C)C(=O)O)c4-c4ccc5c(c4)CCCO5)ccc3C2)nc(C)n1 [Example 58, (S)-2-(tert-Butoxy)-2-(4-(chroman-6-yl)-5-(2-(2,6-dimethylpyrimidin-4-yl)-1,2,3,4-tetrahydroisoquinolin-6-yl)-2,6-dimethylpyridin-3-yl)acetic Acid] | < 0.1 |
| Cc1nc(N)c(-c2ccc(OCCc3ccc(F)cc3)cc2)c(-c2ccc3c(c2)CCCO3)c1[C@H](OC(C)(C)C)C(=O)O [Example 59, (S)-2-(6-Amino-4-(chroman-6-yl)-5-(4-(4-fluorophenethoxy)phenyl)-2-methylpyridin-3-yl)-2-(tert-butoxy)acetic Acid] | < 0.1 |
| Cc1cc(F)ccc1CN1CCc2cc(-c3c(N)nc(C)c([C@H](OC(C)(C)C)C(=O)O)c3-c3ccc4c(c3)CCCO4)ccc2C1 [Example 60, (S)-2-(6-Amino-4-(chroman-6-yl)-5-(2-(4-fluoro-2-methylbenzyl)-1,2,3,4-tetrahydroisoquinolin-6-yl)-2-methylpyridin-3-yl)-2-(tert-butoxy)acetic Acid] | < 0.1 |
| Cc1nc(N)c(-c2ccc3c(c2)CCN(Cc2cccc(F)c2C)C3)c(-c2ccc3c(c2)CCCO3)c1[C@H](OC(C)(C)C)C(=O)O [Example 61, (S)-2-(6-Amino-4-(chroman-6-yl)-5-(2-(3-fluoro-2-methylbenzyl)-1,2,3,4-tetrahydroisoquinolin-6-yl)-2-methylpyridin-3-yl)-2-(tert-butoxy)acetic acid] | < 0.1 |
| Cc1cccc(F)c1CN1CCc2cc(-c3c(N)nc(C)c([C@H](OC(C)(C)C)C(=O)O)c3-c3ccc4c(c3)CCCO4)ccc2C1 [Example 62, (S)-2-(6-Amino-4-(chroman-6-yl)-5-(2-(2-fluoro-6-methylbenzyl)-1,2,3,4-tetrahydroisoquinolin-6-yl)-2-methylpyridin-3-yl)-2-(tert-butoxy)acetic Acid] | < 0.1 |
| Cc1cccc(Cl)c1CN1CCc2cc(-c3c(N)nc(C)c([C@H](OC(C)(C)C)C(=O)O)c3-c3ccc4c(c3)CCCO4)ccc2C1 [Example 63, (S)-2-(6-Amino-5-(2-(2-chloro-6-methylbenzyl)-1,2,3,4-tetrahydroisoquinolin-6-yl)-4-(chroman-6-yl)-2-methylpyridin-3-yl)-2-(tert-butoxy)acetic Acid] | < 0.1 |
| COc1nccc(N2CCc3cc(-c4c(N)nc(C)c([C@H](OC(C)(C)C)C(=O)O)c4-c4ccc5c(c4)CCCO5)ccc3C2)n1 [Example 64, (S)-2-(6-Amino-4-(chroman-6-yl)-5-(2-(2-methoxypyrimidin-4-yl)-1,2,3,4-tetrahydroisoquinolin-6-yl)-2-methylpyridin-3-yl)-2-(tert-butoxy)acetic Acid] | < 0.1 |
| Cc1cc(N2CCc3cc(-c4c(N)nc(C)c([C@H](OC(C)(C)C)C(=O)O)c4-c4ccc5c(c4)CCCO5)ccc3C2)nc(C)n1 [Example 65, (S)-2-(6-Amino-4-(chroman-6-yl)-5-(2-(2,6-dimethylpyrimidin-4-yl)-1,2,3,4-tetrahydroisoquinolin-6-yl)-2-methylpyridin-3-yl)-2-(tert-butoxy)acetic Acid] | < 0.1 |
| Cc1nc(CCCC2CCOCC2)c(-c2ccc(OCCc3ccc(F)cc3)cc2)c(-c2ccc3c(c2)CCCO3)c1[C@H](OC(C)(C)C)C(=O)O [Example 66, (S)-2-(tert-Butoxy)-2-(4-(chroman-6-yl)-5-(4-(4-fluorophenethoxy)phenyl)-2-methyl-6-(3-(tetrahydro-2H-pyran-4-yl)propyl)pyridin-3-yl)acetic Acid] | < 0.1 |
| Cc1cc(N2CCc3cc(-c4c(CCCC5CCOCC5)nc(C)c([C@H](OC(C)(C)C)C(=O)O)c4-c4ccc5c(c4)CCCO5)ccc3C2)ncn1 [Example 67, (S)-2-(tert-Butoxy)-2-(4-(chroman-6-yl)-2-methyl-5-(2-(6-methylpyrimidin-4-yl)-1,2,3,4-tetrahydroisoquinolin-6-yl)-6-(3-(tetrahydro-2H-pyran-4-yl)propyl)pyridin-3-yl)acetic Acid] | < 0.1 |
| Cc1cccc(F)c1CN1CCc2cc(-c3c(CCCC4CCOCC4)nc(C)c([C@H](OC(C)(C)C)C(=O)O)c3-c3ccc4c(c3)CCCO4)ccc2C1 [Example 68, (S)-2-(tert-Butoxy)-2-(4-(chroman-6-yl)-5-(2-(2-fluoro-6-methylbenzyl)-1,2,3,4-tetrahydroisoquinolin-6-yl)-2-methyl-6-(3-(tetrahydro-2H-pyran-4-yl)propyl)pyridin-3-yl)acetic Acid] | < 0.1 |

Same assay, conditions: Human immunodeficiency virus 1, MT2, 120 h, read-out: EC50 μM

| Structure (SMILES) | EC50 [µM] |
| --- | --- |
| Cc1cc(F)ccc1CN1CCc2cc(-c3c(N)nc(C)c([C@H](OC(C)(C)C)C(=O)O)c3-c3ccc4c(c3)CCCO4)ccc2C1 [Example 60, (S)-2-(6-Amino-4-(chroman-6-yl)-5-(2-(4-fluoro-2-methylbenzyl)-1,2,3,4-tetrahydroisoquinolin-6-yl)-2-methylpyridin-3-yl)-2-(tert-butoxy)acetic Acid] | 0.003 |
| Cc1nc(CCCC2CCOCC2)c(-c2ccc(OCCc3ccc(F)cc3)cc2)c(-c2ccc3c(c2)CCCO3)c1[C@H](OC(C)(C)C)C(=O)O [Example 66, (S)-2-(tert-Butoxy)-2-(4-(chroman-6-yl)-5-(4-(4-fluorophenethoxy)phenyl)-2-methyl-6-(3-(tetrahydro-2H-pyran-4-yl)propyl)pyridin-3-yl)acetic Acid] | 0.006 |
